Test results as given in patent US20080160106A1, “Novel Uses for Proton Pump Inhibitors” (Istituto Superiore de Sanita, priority 2004, published 2008).
Entries after “also recorded” stand apart in the source; their conditions may differ.

What was measured:
[1] = system: human melanoma cells; assay: In vivo effects of omeprazole and cisplatin on tumour growth in the human/SCID mouse model; parameters: species or system CB.17 scid/scid mice; details: cisplatin alone, single dose 5 mg/kg i.p.
Experimental: Animals: CB.17 SCID/SCID female mice (Harlan, Italy) were used at 4-5 weeks of age and were kept under specific pathogen-free conditions. SCID mice were housed in microisolator cages, and all food, water and bedding were autoclaved prior to use.
Transplantation and growth of human tumours in SCID mice: Each mouse was injected subcutaneously (s.c.) into the right flank with 3×10^6 cells resuspended in 0.2 ml RPMI 1640 supplemented with 10% FCS. After transplantation, the size of each tumour was measured using callipers. The tumour weight was estimated according to Geran et al. (1972) using the formula:
Tumour weight (mg)=length (mm)×width^2 (min)/2.
Mice treatment: Omeprazole (Astra-Zeneca, Italy) and pantoprazole (Sigma Tau) were administered at a dose of 75 mg/kg by gavage as previously described (Watson and Smith, 2001), as a suspension in PBS1X. Lansoprazole (Pharmacia, Sweden) and rabeprazole (Janssen) were administered at a dose of 25 mg/kg by gavage as previously described (Watson and Smith, 2001), as a suspension in PBS1X.
Cisplatin (Aventis, France) was administered intraperitoneally (i.p.) at a dose of 5 mg/kg (Son and Huang 1994).
Other: unless otherwise specified, other parameters are as set out in Examples 1 and 2, above.

[2] = system: human melanoma cells; assay: Cytotoxic effect of omeprazole in vitro, dose response curve (Trypan blue exclusion; Live/Dead assay); format: cell-based; details: 0.01-10 μg/ml
Experimental: Tumour cells: Human tumour cells (24 melanoma cell lines, 2 colon adenocarcinoma cell lines and 2 breast cancer cell lines) obtained from a primary tumour were cultured in buffered (with bicarbonate) or not buffered (without bicarbonate) RPMI 1640 medium enriched with 10% foetal bovine serum and antibiotics in a humidified 5% C02 and 95% air atmosphere.
Dose response curves: Tumour cells, growing in suspension, were plated at 1.5×10^5/ml, in 24 wells cell culture plate (Costar). Tumour cells growing in adherence were plated at 3×10^4 cells/well in 24 wells cell culture plate. Each dilution was tested at least in triplicate in each experiment.
Cytotoxicity assay: Cytotoxicity was evaluated using the Trypan blue exclusion method after treatment with each chemotherapeutic drug. Briefly, after treatment, cells growing in suspension were collected, centrifuged and resuspended in PBS1X. Alternatively, cells growing in adherence were collected, pooling both adherent (live) after trypsinisation and in suspension (assumed dead) cells. […] After 5 minutes, cells were loaded on a haemocytometer (Neubauer) and both live (not stained) and dead (blue stained) cells were counted under a light microscope. Cell viability was assessed calculating the percentage of dead cells using the formula: […]
Live/Dead Viability/Cytotoxicity Assay®. This assay (Molecular Probes, OR, USA) provides a two colour fluorescence cell viability assay that is based on the simultaneous determination of live and dead cells with two probes (Calcein AM and Ethidium homodimer 1) that measure two recognised parameters of cell viability—intracellular esterase activity and plasma membrane integrity. Live cells were distinguished by the presence of ubiquitous intracellular esterase activity, determined by the enzymatic conversion of the virtually non-fluorescent cell permeant Calcein AM to the intensely fluorescent calcein (ex/em 495 nm/515 nm), which is retained in the cell. […] The samples were analysed with a FACScan cytometer (Becton Dickinson) equipped with a 488 argon laser. […]

[3] = system: human melanoma cells resistant to cisplatin; assay: Effects of omeprazole on cisplatin resistance in vitro (cisplatin dose response curve); format: cell-based; details: without cisplatin
Experimental: Cytotoxicity assay: Cytotoxicity was evaluated using the Trypan blue exclusion method after treatment with each chemotherapeutic drug. Briefly, after treatment, cells growing in suspension were collected, centrifuged and resuspended in PBS1X. Alternatively, cells growing in adherence were collected, pooling both adherent (live) after trypsinisation and in suspension (assumed dead) cells. Cells were thus centrifuged (10 minutes at 1500 rpm) and resuspended in PBS1X. An aliquot of the cell suspension was diluted 1:1 (v/v) with 0.4% trypan blue. After 5 minutes, cells were loaded on a haemocytometer (Neubauer) and both live (not stained) and dead (blue stained) cells were counted under a light microscope. Cell viability was assessed calculating the percentage of dead cells using the formula:
% dead cells=(no. dead cells/no. dead cells+no. live cells)×100.
Drugs: The PPIs were as in Example 1, above. Cisplatin (Aventis, France) was resuspended in PBS1X at a stock concentration of 1 mg/ml, and stored at −20° C. Both stock solutions were thawed immediately before use and not frozen again. 5-Fluorouracil (Teva Pharma, Holland) was supplied in the form of a solution at a concentration of 50 mg/ml, and was stored at r.t. as indicated by the supplier. […]

| Structure (SMILES) | tumour growth [1] | cytotoxic effect (% dead cells) ([2]; buffered neutral medium pH 7.2) | cytotoxic effect (% dead cells) ([2]; not buffered, slightly acidic medium) | cytotoxic effect of omeprazole alone [3] |
| --- | --- | --- | --- | --- |
| N.N.[Cl][Pt][Cl] [cisplatin] | did not show a significant effect on tumour growth; also recorded: almost ineffective if administered alone | – | – | – |
| COc1ccc2[nH]c([S+]([O-])Cc3ncc(C)c(OC)c3C)nc2c1 (stereo not shown) [omeprazole] | – | no apparent cytotoxic effect | cytotoxic in a dose-dependent manner only for tumour cells grown in slightly acidic medium; also recorded: markedly exerted a cytotoxic effect on tumour cells, in a dose-dependent manner | did not exhibit any cytotoxic effect |
